Source: the NIST ThermoML archive (doi:10.1021/je500239t)
“And” between values parts separate entries of the source, which are not always exact repeats. Equal entries are not always repeated.

Details: for mass density: Liquid, isochoric method; for surface tension liquid-gas: Ring tensiometer

CCCCCCCCCCCCCC[P+](CCCCCC)(CCCCCC)CCCCCC.O=S(=O)([N-]S(=O)(=O)C(F)(F)F)C(F)(F)F
Details | mass density [kg/m3]
219.01 K, 845.2 kPa | 1126.5
225.43 K, 10086 kPa | 1125.99
225.43 K, 30200 kPa | 1132.83
232.16 K, 19479 kPa | 1125.46
233.47 K, 2869.4 kPa | 1117.39
239.5 K, 10003 kPa | 1116.86
239.51 K, 29986 kPa | 1124.87
246.7 K, 20172 kPa | 1116.37
247.35 K, 40212 kPa | 1124.27
247.71 K, 1577.7 kPa | 1107.13
254.34 K, 29850 kPa | 1115.68
254.34 K, 29998 kPa | 1115.78
254.36 K, 9848.1 kPa | 1106.63
255.79 K, 51007 kPa | 1123.62
262.3 K, 20026 kPa | 1106.02
262.46 K, 40028 kPa | 1115.06
263.55 K, 901 kPa | 1095.02
268.29 K, 100 kPa | 1090.79
270.61 K, 30010 kPa | 1105.4
270.69 K, 9770.1 kPa | 1094.49
270.95 K, 49862 kPa | 1114.43
273.26 K, 100 kPa | 1087.18
278.4 K, 100 kPa | 1083.71
279.46 K, 39911 kPa | 1104.75
280.16 K, 20417 kPa | 1093.79
281.02 K, 1048.9 kPa | 1082.63
283.3 K, 100 kPa | 1079.84
288.55 K, 100 kPa | 1076.14
288.56 K, 49907 kPa | 1104.08
288.91 K, 10149 kPa | 1082.04
288.92 K, 30030 kPa | 1093.15
292.93 K, 100 kPa | 1072.95
298 K, 39766 kPa | 1092.49
298.17 K, 191.9 kPa | 1068.8
298.17 K, 19640 kPa | 1081.39
298.19 K, 100 kPa | 1068.54
299.08 K, 1497.9 kPa | 1069.18
303.24 K, 100 kPa | 1065.2
307.5 K, 49581 kPa | 1091.81
307.85 K, 10007 kPa | 1068.57
308.01 K, 100 kPa | 1061.72
308.08 K, 30024 kPa | 1080.67
309.27 K, 1043.1 kPa | 1061.06
313.17 K, 100 kPa | 1057.68
318.03 K, 39710 kPa | 1079.97
318.05 K, 100 kPa | 1054.69
318.08 K, 19797 kPa | 1067.86
318.16 K, 9063.9 kPa | 1060.46
318.96 K, 1508.5 kPa | 1054.33
323.08 K, 100 kPa | 1051.01
328.31 K, 100 kPa | 1047.34
328.73 K, 10024 kPa | 1053.67
328.99 K, 49945 kPa | 1079.21
329.13 K, 30007 kPa | 1067.09
329.82 K, 733.9 kPa | 1046.15
329.83 K, 19983 kPa | 1059.65
333.03 K, 100 kPa | 1044.1
338.51 K, 100 kPa | 1040.38
339.97 K, 40003 kPa | 1066.34
340.03 K, 20057 kPa | 1052.9
340.84 K, 1346 kPa | 1038.9
340.84 K, 10036 kPa | 1045.42
341.21 K, 30097 kPa | 1058.87
342.84 K, 100 kPa | 1037.08
348.34 K, 100 kPa | 1033.83
350.84 K, 50030 kPa | 1065.58
353.13 K, 100 kPa | 1030.2
353.15 K, 20345 kPa | 1044.59
353.15 K, 31348 kPa | 1052.01
353.15 K, 40207 kPa | 1058.06
353.16 K, 11244 kPa | 1038.09
358.18 K, 100 kPa | 1026.93
364.28 K, 100 kPa | 1022.11

Details | surface tension liquid-gas
273.49 K | 31.49 mN/m
273.52 K | 31.51 mN/m
278.33 K | 31.18 mN/m
278.52 K | 31.21 mN/m
283.37 K | 30.85 mN/m
283.39 K | 30.94 mN/m
288.38 K | 30.66 mN/m
288.5 K | 30.56 mN/m
293.37 K | 30.35 mN/m
298.24 K | 30.13 mN/m
298.25 K | 30.11 mN/m
303.15 K | 29.82 mN/m
303.17 K | 29.89 mN/m
308.18 K | 29.56 mN/m
308.21 K | 29.37 mN/m
313.21 K | 29.15 mN/m
313.22 K | 29.24 mN/m
318.2 K | 29.03 mN/m
318.23 K | 28.86 mN/m
323.19 K | 28.56 mN/m
323.28 K | 28.54 mN/m
328.11 K | 28.34 mN/m
328.28 K | 27.99 mN/m
333.15 K | 27.89 mN/m and 27.98 mN/m
338.1 K | 27.59 mN/m
338.13 K | 27.94 mN/m
343 K | 27.46 mN/m
343.05 K | 27.3 mN/m
348 K | 27.14 mN/m
348.34 K | 26.92 mN/m
353.32 K | 26.56 mN/m
353.33 K | 26.79 mN/m
358.1 K | 26.38 mN/m
358.49 K | 26.45 mN/m
364.76 K | 26.01 mN/m
364.97 K | 25.93 mN/m
